Measured values from publication PMC9994683 (PLOS ONE, 2023).

Legend:
[1] = tested on: Escherichia coli (ATCC 25922); assay: Disc-diffusion assay; format: cell-based
[2] = tested on: Staphylococcus aureus (ATCC 43300); assay: Well-diffusion assay; format: cell-based; details: extracts 50 μg/mL, 50 μL per well, within 24 h
[3] = tested on: Salmonella enterica (ATCC 14028); assay: Well-diffusion assay; format: cell-based; details: extracts 50 μg/mL, 50 μL per well, within 24 h
Method: (§1) The bactericidalpotential of 50μg/mL of A. indica L. and M. azedarach L. leaves extracts were evaluated using the disc and well-diffusion assays by the formation of inhibition zone. Then, the broth-microdilution approach was used to estimate the values of minimum inhibitory concentration (MIC).
(§2) The antibacterial actions of extracts were examined against Escherichia coli (ATCC 25922), Salmonella enterica (ATCC 14028), Pseudomonas aeruginosa (ATCC 10145), representing Gram-negative (GN) bacteria; Listeria monocytogenes (ATCC 35152), Staphylococcus aureus (ATCC 43300) and Enterococcus faecalis (ATCC 43845), representing Gram-positive (GP) bacteria. Each bacterial culture stock preserved in -80°C was injected into a tube containing 20 ml of Trypticase soya broth (TSB). Then, all inoculated tubes were incubated for 24 h at 37°C. Dilution of the cultures with Mueller–Hinton Broth (MHB) was performed corresponding to ten folds serial dilution upto 10^-8CFU/ml of the bacterial culture.
2.6.2.2. Well-diffusion method. Using sanitized needle tips, a 6 mm-diameter hole was drilled. Afterward when, a sterilized cotton swab was employed to smear the inoculum standard solution of the examined microbes onto the medium. The specimen was then transferred to each well in intervals of 50 μL. Two reference antibiotic drugs (vancomycin and ciprofloxacin) served as positive controls. […]

[4] = tested on: Listeria monocytogenes (ATCC 35152); assay: Well-diffusion assay; format: cell-based; details: extracts 50 μg/mL, 50 μL per well, within 24 h
[5] = tested on: Pseudomonas aeruginosa (ATCC 10145); assay: Well-diffusion assay; format: cell-based; details: extracts 50 μg/mL, 50 μL per well, within 24 h
[6] = tested on: Pseudomonas aeruginosa (ATCC 10145); assay: Disc-diffusion assay; format: cell-based
[7] = tested on: Staphylococcus aureus (ATCC 43300); assay: Disc-diffusion assay; format: cell-based
[8] = tested on: Enterococcus faecalis (ATCC 43845); assay: Well-diffusion assay; format: cell-based; details: extracts 50 μg/mL, 50 μL per well, within 24 h
[9] = tested on: Enterococcus faecalis (ATCC 43845); assay: Disc-diffusion assay; format: cell-based
[10] = tested on: Listeria monocytogenes (ATCC 35152); assay: Disc-diffusion assay; format: cell-based; details: ATCC35152, extracts 50 μg/mL, vancomycin 30 μg/disc, ciprofloxacin 5 μg/disc, read-out: zone of inhibition (diameter), Disc, L. mono.
Method: as §1, §2
(§3) 2.6.2.1. Disc-diffusion method. The technique was conducted based upon the Clinical and Laboratory Standards Institute (CLSI) (M02-A11). The prepared bacterial inoculum suspension was briefly swabbed onto MHA medium with a sterile cotton swab. Next, sterile discs made of filter paper (6 mm) (Maidstone, UK) were saturated with 50μg/mLof the tested samples. Both Ciprofloxacin (5μg/disc) and Vancomycin (30μg/disc) were used as controls. The saturated discs were lightly pushed on the top surfaces MHA and incubated with bacteria overnight at 37°C. A produced zone of inhibition (ZOI) was measured and given in millimeters (mm).

[11] = tested on: Salmonella enterica (ATCC 14028); assay: Disc-diffusion assay; format: cell-based; details: ATCC14028, extracts 50 μg/mL, vancomycin 30 μg/disc, ciprofloxacin 5 μg/disc, read-out: zone of inhibition (diameter), Disc, S. enterica
Method: as §1, §2, §3

[12] = tested on: Escherichia coli (ATCC 25922); assay: Well-diffusion assay; format: cell-based; details: extracts 50 μg/mL, 50 μL per well, within 24 h
[13] = tested on: hCoV-19/Egypt/NRC-3/2020 SARS-CoV-2 virus; assay: Anti-SARS-CoV-2 activity (IC50), crystal violet assay in Vero-E6 cells; format: cell-based; details: SARS-CoV-2 in Vero E6 cells, reference drug control
Vero E6 cells = assay: MTT cytotoxicity assay (CC50) in Vero E6 cells; format: cell-based, African green monkey; details: reference drug control

Compound	zone of inhibition at 30 µg/disc ([1]; ATCC25922, read-out: zone of inhibition (diameter), Disc, E. coli) [mm]	zone of inhibition (diameter), Well, S. aureus [2] [mm]	zone of inhibition (diameter), Well, S. enterica [3] [mm]	zone of inhibition (diameter), Well, L. mono. [4] [mm]	zone of inhibition (diameter), Well, P. aeruginosa [5] [mm]	zone of inhibition at 30 µg/disc ([6]; ATCC10145, read-out: zone of inhibition (diameter), Disc, P. aeruginosa) [mm]	zone of inhibition at 30 µg/disc ([7]; ATCC43300, read-out: zone of inhibition (diameter), Disc, S. aureus) [mm]	zone of inhibition (diameter), Well, E. faecalis [8] [mm]	zone of inhibition at 30 µg/disc ([9]; ATCC43845, read-out: zone of inhibition (diameter), Disc, E. faecalis) [mm]	zone of inhibition at 30 µg/disc [10] [mm]	zone of inhibition at 30 µg/disc [11] [mm]	zone of inhibition (diameter), Well, E. coli [12] [mm]	zone of inhibition at 5 µg/disc ([1]; ATCC25922, extracts 50 μg/mL, vancomycin 30 μg/disc, ciprofloxacin 5 μg/disc, read-out: zone of inhibition (diameter), Disc, E. coli) [mm]	zone of inhibition at 5 µg/disc ([6]; ATCC10145, extracts 50 μg/mL, vancomycin 30 μg/disc, ciprofloxacin 5 μg/disc, read-out: zone of inhibition (diameter), Disc, P. aeruginosa) [mm]	zone of inhibition at 5 µg/disc ([7]; ATCC43300, extracts 50 μg/mL, vancomycin 30 μg/disc, ciprofloxacin 5 μg/disc, read-out: zone of inhibition (diameter), Disc, S. aureus) [mm]	zone of inhibition at 5 µg/disc ([9]; ATCC43845, extracts 50 μg/mL, vancomycin 30 μg/disc, ciprofloxacin 5 μg/disc, read-out: zone of inhibition (diameter), Disc, E. faecalis) [mm]	zone of inhibition at 5 µg/disc [10] [mm]	zone of inhibition at 5 µg/disc [11] [mm]	IC50 [13] [µM]	CC50 (Vero E6 cells) [µM]
CN[C@H](CC(C)C)C(=O)N[C@H]1C(=O)N[C@@H](CC(N)=O)C(=O)N[C@H]2C(=O)N[C@H]3C(=O)N[C@H](C(=O)N[C@H](C(=O)O)c4cc(O)cc(O)c4-c4cc3ccc4O)[C@H](O)c3ccc(c(Cl)c3)Oc3cc2cc(c3O[C@@H]2O[C@H](CO)[C@@H](O)[C@H](O)[C@H]2O[C@H]2C[C@](C)(N)[C@H](O)[C@H](C)O2)Oc2ccc(cc2Cl)[C@H]1O [Vanco., vancomycin]	9 ± 0.11	14 ±0.27	9 ±0.24	11 ±0.11	8 ±0.24	6 ± 0.21	12 ± 0.22	13 ±0.23	11 ± 0.31	9 ± 0.43	7 ± 0.21	10 ±0.23	–	–	–	–	–	–	–	–
O=C(O)c1cn(C2CC2)c2cc(N3CCNCC3)c(F)cc2c1=O [Cipro., ciprofloxacin]	–	10 ±0.29	12 ±0.31	8 ±0.18	11 ±0.31	–	–	10 ±0.15	–	–	–	16 ±0.19	14 ± 0.28	9 ± 0.15	8 ± 0.24	9 ± 0.19	6 ± 0.25	11 ± 0.15	–	–
CCC(CC)COC(=O)[C@H](C)N[P@](=O)(OC[C@H]1O[C@@](C#N)(c2ccc3c(N)ncnn23)[C@H](O)[C@@H]1O)Oc1ccccc1 [remedesivir]	–	–	–	–	–	–	–	–	–	–	–	–	–	–	–	–	–	–	6.72	473
